Results reported in ChEMBL document CHEMBL1649061, “Synthesis and pharmacological evaluation of N-(3-(1H-indol-4-yl)-5-(2-methoxyisonicotinoyl)phenyl)methanesulfonamide (LP-261), a potent antimitotic agent” (J Med Chem, 2011).
The source made the active and inactive calls. The calls are words filed in the database; no cut-off is given here.

Legend:
[1] = Oral bioavailability in Sprague-Dawley rat at 20 mg/kg; format: ADME, organism-based; details: in vivo
MCF7 = experiment: Cell cycle arrest in human MCF7 cells assessed as accumulation at G2/M phase after 24 hrs using propidium iodide staining by FACS analysis; format: functional, cell-based; details: MCF7, 24 h
[2] = Inhibition of tubulin polymerization after 60 mins
HeLa = experiment: Cytotoxicity against human HeLa cells after 48 to 72 hrs by […] assay; format: functional, cell-based
A2780 = experiment: Cytotoxicity against human A2780 cells after 48 to 72 hrs by […] assay; format: functional, cell-based
BXPC-3 = experiment: Cell cycle arrest in human BxPC3 cells assessed as accumulation at G2/M phase after 24 hrs using propidium iodide staining by FACS analysis; format: functional, cell-based; details: BXPC-3, 24 h
NCI-H23 = experiment: Cell cycle arrest in human NCI-H23 cells assessed as accumulation at G2/M phase after 24 hrs using propidium iodide staining by FACS analysis; format: functional, cell-based; details: NCI-H23, 24 h
U-266 = experiment: Cell cycle arrest in human U266 cells assessed as accumulation at G2/M phase after 24 hrs using propidium iodide staining by FACS analysis; format: functional, cell-based; details: U-266, 24 h
SW-620 [3] = experiment: Cytotoxicity against human SW620 cells after 48 to 72 hrs by […] assay; format: functional, cell-based
PC-3 = experiment: Cell cycle arrest in human PC3 cells assessed as accumulation at G2/M phase after 24 hrs using propidium iodide staining by FACS analysis; format: functional, cell-based; details: PC-3, 24 h
[4] = Cytotoxicity against human NCI-ADR-RES expressing MDR1 cells after 48 to 72 hrs by […] assay; format: functional, cell-based
Jurkat = experiment: Cell cycle arrest in human Jurkat cells assessed as accumulation at G2/M phase after 24 hrs using propidium iodide staining by FACS analysis
[5] = Displacement of [3H]colchicine from tubulin at 30 uM
SW-620 [6] = experiment: Cell cycle arrest in human SW620 cells assessed as accumulation at G2/M phase after 24 hrs using propidium iodide staining by FACS analysis; format: functional, cell-based; details: SW-620, 24 h
NCI-H522 = experiment: Cell cycle arrest in human NCI-H522 cells assessed as accumulation at G2/M phase after 24 hrs using propidium iodide staining by FACS analysis; format: functional, cell-based; details: NCI-H522, 24 h

SMILES	bioavailability [1]	IC50 (MCF7)	EC50 [2]	IC50 (HeLa)	IC50 (A2780)	IC50 (BXPC-3)	IC50 (NCI-H23)	IC50 (U-266)	IC50 (SW-620 [3])	IC50 (PC-3)	IC50 [4]	IC50 (Jurkat)	inhibition [5]	IC50 (SW-620 [6])	IC50 (NCI-H522)
Oc1cc(Nc2cccnc2)cc(-c2cccc3[nH]ccc23)c1	24%														
COC(=O)Nc1cc(C(=O)c2ccnc(N3CCOCC3)c2)cc(-c2cccc3[nH]ccc23)c1		0.03 µM	4.6 µM	0.28 µM	0.22 µM	0.01 µM	0.03 µM	0.12 µM	0.25 µM	0.02 µM	0.3 µM				
CC(=O)Nc1cc(C(=O)c2cc(C)nc(N3CCOCC3)c2)cc(-c2cccc3[nH]ccc23)c1		0.01 µM		0.49 µM	0.35 µM	0.07 µM	0.04 µM	0.02 µM	0.45 µM	0.05 µM	1.1 µM				
COc1ccc(S(=O)(=O)Nc2cccnc2Nc2ccc(O)cc2)cc1 [ABT-751]				0.27 µM	0.17 µM				0.19 µM		0.29 µM	0.16 µM			
COc1cc2c(c(OC)c1OC)-c1ccc(OC)c(=O)cc1[C@@H](NC(C)=O)CC2 [COLCHICINE]			2 µM			0.016 µM	0.013 µM	0.01 µM		0.033 µM		0.017 µM	79%	0.014 µM	0.014 µM
CC(=O)O[C@H]1C(=O)[C@@]2(C)[C@H]([C@H](OC(=O)c3ccccc3)[C@]3(O)C[C@H](OC(=O)[C@H](O)[C@@H](NC(=O)c4ccccc4)c4ccccc4)C(C)=C1C3(C)C)[C@]1(OC(C)=O)CO[C@@H]1C[C@@H]2O [PACLITAXEL]				0.02 µM	0.01 µM				0.03 µM		13 µM				
CC[C@]1(O)C[C@H]2CN(CCc3c([nH]c4ccccc34)[C@@](C(=O)OC)(c3cc4c(cc3OC)N(C=O)[C@H]3[C@@](O)(C(=O)OC)[C@H](OC(C)=O)[C@]5(CC)C=CCN6CC[C@]43[C@@H]65)C2)C1 [VINCRISTINE]			2.5 µM										inactive		
